# Experimental data published in PMC3234597, “Two Panels of Steroid Receptor Luciferase Reporter Cell Lines for Compound Profiling” (Combinatorial Chemistry & High Throughput Screening, 2011).
# Like-named read-outs stand apart in the source and are kept apart here.
# How the values were obtained:
# Assay type in all cases: cell-based
# human GR (full-length) = target: T1, human GR (full-length) (Homo sapiens, UniProt P04150); test: U2OS-GR/MMTV luciferase reporter cell line (full-length receptor); settings: for Log EC50: agonist mode, 20 h, log10 of molar EC50, mean ± SEM; for Log EC50 / Log IC50: GR/MMTV; for Log IC50: antagonist mode, in the presence of 5 nM dexamethasone, log10 of molar IC50, mean ± SEM
# T1 construct: expression vectors encoding full-length steroid receptors: pcDNA3-hAR and pcDNA3-hGR; host or cells: U2OS
# T1 sequence (P04150 1-777): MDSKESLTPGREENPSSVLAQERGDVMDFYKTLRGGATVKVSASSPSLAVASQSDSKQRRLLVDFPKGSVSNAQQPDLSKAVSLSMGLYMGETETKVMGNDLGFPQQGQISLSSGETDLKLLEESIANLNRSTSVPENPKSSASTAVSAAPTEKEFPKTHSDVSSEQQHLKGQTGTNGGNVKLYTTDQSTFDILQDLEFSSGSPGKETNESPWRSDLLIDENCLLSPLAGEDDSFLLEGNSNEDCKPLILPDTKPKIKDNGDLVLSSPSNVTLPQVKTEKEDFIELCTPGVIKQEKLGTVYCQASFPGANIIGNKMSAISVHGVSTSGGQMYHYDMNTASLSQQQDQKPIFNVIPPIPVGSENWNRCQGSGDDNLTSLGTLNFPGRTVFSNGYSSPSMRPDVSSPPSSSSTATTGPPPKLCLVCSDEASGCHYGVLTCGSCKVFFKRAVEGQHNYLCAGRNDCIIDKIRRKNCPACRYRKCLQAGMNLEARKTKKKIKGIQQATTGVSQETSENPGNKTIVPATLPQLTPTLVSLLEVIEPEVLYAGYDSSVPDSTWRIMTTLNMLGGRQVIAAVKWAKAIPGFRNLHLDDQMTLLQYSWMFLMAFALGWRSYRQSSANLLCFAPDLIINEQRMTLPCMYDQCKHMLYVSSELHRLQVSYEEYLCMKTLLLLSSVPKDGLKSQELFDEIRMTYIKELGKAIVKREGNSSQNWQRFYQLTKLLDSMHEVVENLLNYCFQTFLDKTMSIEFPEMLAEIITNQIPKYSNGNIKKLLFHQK
# [1] = target: T2, ERα^G420C-LBD fused to Gal4-DBD (Homo sapiens, UniProt P03372, G420C); test: U2OS-ERα^G420C-LBD/9xGal4UAS luciferase reporter cell line
# T2 construct: expressed in transfected cells; host or cells: U2OS
# T2 sequence (P03372 311-547 G420C limits assumed): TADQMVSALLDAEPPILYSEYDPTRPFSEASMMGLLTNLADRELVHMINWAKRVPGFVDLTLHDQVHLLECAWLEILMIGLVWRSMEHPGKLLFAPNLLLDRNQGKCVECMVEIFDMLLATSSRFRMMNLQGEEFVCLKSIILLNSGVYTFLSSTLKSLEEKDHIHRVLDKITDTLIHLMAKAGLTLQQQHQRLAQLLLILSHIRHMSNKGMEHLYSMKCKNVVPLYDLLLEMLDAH
# [2] = target: T3, ERα^wt-LBD fused to Gal4-DBD (Homo sapiens, UniProt P03372); test: U2OS-ERα^wt-LBD/9xGal4UAS luciferase reporter cell line
# T3 construct: ERα-LBD (amino acids 303-595) based on GenBank NM_000125; expressed in transfected cells; host or cells: U2OS
# T3 sequence (P03372 303-595): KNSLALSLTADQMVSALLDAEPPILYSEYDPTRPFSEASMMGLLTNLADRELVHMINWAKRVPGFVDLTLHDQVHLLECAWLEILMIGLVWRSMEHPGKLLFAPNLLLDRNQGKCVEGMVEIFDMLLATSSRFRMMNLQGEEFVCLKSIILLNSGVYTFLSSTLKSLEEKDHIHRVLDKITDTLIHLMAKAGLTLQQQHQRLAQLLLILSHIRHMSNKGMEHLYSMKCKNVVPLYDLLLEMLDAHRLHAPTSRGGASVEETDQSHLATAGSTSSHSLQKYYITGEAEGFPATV
# human AR (full-length) = target: T4, human AR (full-length) (Homo sapiens, UniProt P10275); test: U2OS-AR/MMTV luciferase reporter cell line (full-length receptor); settings: for Log EC50: agonist mode, 20 h, log10 of molar EC50, mean ± SEM; for Log EC50 / Log IC50: AR/MMTV; for Log IC50: antagonist mode, in the presence of 0.05 nM dihydrotestosterone, log10 of molar IC50, mean ± SEM
# T4 construct: expression vectors encoding full-length steroid receptors: pcDNA3-hAR and pcDNA3-hGR; host or cells: U2OS
# T4 sequence (P10275 1-920): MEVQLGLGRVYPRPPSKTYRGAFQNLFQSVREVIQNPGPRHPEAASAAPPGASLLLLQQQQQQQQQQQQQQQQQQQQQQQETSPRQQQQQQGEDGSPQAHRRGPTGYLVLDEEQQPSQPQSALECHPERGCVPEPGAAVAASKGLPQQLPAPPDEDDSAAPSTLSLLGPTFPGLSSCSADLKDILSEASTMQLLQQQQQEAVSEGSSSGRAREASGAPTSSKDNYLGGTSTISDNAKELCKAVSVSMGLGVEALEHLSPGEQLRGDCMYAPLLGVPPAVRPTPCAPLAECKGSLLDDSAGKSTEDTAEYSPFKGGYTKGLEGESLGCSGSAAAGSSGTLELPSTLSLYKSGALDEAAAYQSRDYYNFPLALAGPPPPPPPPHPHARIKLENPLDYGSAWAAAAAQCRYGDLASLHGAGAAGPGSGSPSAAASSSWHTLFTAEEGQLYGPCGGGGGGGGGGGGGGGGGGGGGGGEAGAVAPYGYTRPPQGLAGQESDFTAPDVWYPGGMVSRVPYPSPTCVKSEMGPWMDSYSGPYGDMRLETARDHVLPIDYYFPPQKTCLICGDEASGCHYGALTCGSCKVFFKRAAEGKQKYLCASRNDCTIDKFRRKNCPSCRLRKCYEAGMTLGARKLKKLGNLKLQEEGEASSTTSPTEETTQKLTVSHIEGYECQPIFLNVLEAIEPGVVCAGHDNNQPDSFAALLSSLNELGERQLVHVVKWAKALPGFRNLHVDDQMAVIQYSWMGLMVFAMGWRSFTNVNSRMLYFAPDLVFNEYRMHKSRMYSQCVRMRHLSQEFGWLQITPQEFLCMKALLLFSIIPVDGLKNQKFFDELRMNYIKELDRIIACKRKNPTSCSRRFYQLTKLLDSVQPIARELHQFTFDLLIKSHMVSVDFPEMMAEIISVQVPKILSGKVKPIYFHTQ
Compound,EC50 (human GR (full-length); read-out: Log EC50 (converted)) [µM],EC50 [1] [µM],EC50 [2] [µM],EC50 (human AR (full-length)) [µM],also measured
"C[C@]12C[C@H](O)[C@H]3[C@@H](CCC4=CC(=O)CC[C@@]43C)[C@@H]1CC[C@@H]2C(=O)CO [Corticosterone, corticosterone]",0.0269,> 10,> 10,,
"C[C@]12CCC(=O)C=C1CC[C@@H]1[C@@H]2[C@@H](O)C[C@]2(C=O)[C@@H](C(=O)CO)CC[C@@H]12 [Aldosterone, aldosterone]",0.209,> 10,> 10,> 10,
C[C@]12CC[C@@H]3c4ccc(O)cc4C[C@@H](CCCCCCCCC[S+]([O-])CCCC(F)(F)C(F)(F)F)[C@H]3[C@@H]1CC[C@@H]2O (stereo partly drawn) [ICI 182.780],,,,,Log EC50 (human GR (full-length)): > -5.00 M; Log IC50 (human GR (full-length)): > -5.00 M; Log EC50 (human AR (full-length)): > -5.00 M; Log IC50 (human AR (full-length)): > -5.00 M
"C[C@H]1C[C@H]2[C@@H]3CCC4=CC(=O)C=C[C@]4(C)[C@@]3(Cl)[C@@H](O)C[C@]2(C)[C@@]1(O)C(=O)CO [Beclomethasone, beclomethasone]",,,,,"Log EC50 ([1]; agonist mode, ERα^G420C-LBD/9xGal4UAS, 20 h, log10 of molar EC50, mean ± SEM): > -5.00 M; Log IC50 ([1]; antagonist mode, ERα^G420C-LBD/9xGal4UAS, in the presence of 20 nM E2, log10 of molar IC50, mean ± SEM): > -5.00 M; Log EC50 ([2]; agonist mode, ERα^wt-LBD/9xGal4UAS, 20 h, log10 of molar EC50, mean ± SEM): > -5.00 M; Log IC50 ([2]; antagonist mode, ERα^wt-LBD/9xGal4UAS, in the presence of 1 nM E2, log10 of molar IC50, mean ± SEM): > -5.00 M"
"C#C[C@]1(O)CC[C@H]2[C@@H]3CCC4=Cc5oncc5C[C@]4(C)[C@H]3CC[C@@]21C [Danazol, danazol]",> 10,> 10,0.245,,
"C[C@]12C=CC(=O)C=C1CC[C@H]1[C@@H]3C[C@@H](O)[C@](O)(C(=O)CO)[C@@]3(C)C[C@H](O)[C@@]12F [Triamcinolone, triamcinolone]",0.0129,> 10,> 10,,
"CCC(=O)[C@@]1(C)CC[C@H]2[C@@H]3CCC4=CC(=O)CCC4=C3CC[C@@]21C [Promegestone (R5020), promegestone]",> 10,> 10,> 10,> 10,IC50 (human AR (full-length)): 0.0126 µM
"CCCc1c(-c2ccc(O)cc2)nn(-c2ccc(O)cc2)c1-c1ccc(O)cc1 [PPT, propyl pyrazole triol]",> 10,0.0115,0.0024,> 10,
"CC[C@@H]1Cc2cc(O)ccc2C2=C1c1ccc(O)cc1C[C@H]2CC (relative stereo) [R.R-THC, (R,R)-cis-diethyltetrahydro-2,8-chrysenediol]",,,,,Log EC50 (human GR (full-length)): > -5.00 M; Log IC50 (human GR (full-length)): > -5.00 M; Log EC50 (human AR (full-length)): > -5.00 M; Log IC50 (human AR (full-length)): -5.22 ± 1.26 M
"O=c1c(-c2ccc(O)cc2)coc2cc(O)cc(O)c12 [Genistein, genistein]",,,,> 10,EC50 (human GR (full-length)): > 10 µM
